{
  "source": "patent US20230029496A1",
  "about": "“AMINO ACID ALTERNATIVE CURING SYSTEM” (THE TEXAS A&M UNIVERSITY SYSTEM, priority 2019, published 2023)",
  "key": {"[1]": {"test_system": "nitric oxide synthase system", "conditions": "pork; for Residual Nitrite, LSMean main effect of Temperature: sodium nitrite", "description": "(§1) Fresh ground meat (beef, pork or poultry) was separated in ˜0.5 Kg batches and mixed with 2% salt and 10% added water. […] Each individual batch was mixed (1 min) in a food processor, removed for temperature and pH analyses and then placed into a jerky extruder tube. Approximately 25 g of sample were extruded into 50 mL centrifuge, then capped and labeled and placed into a controlled water batch and heated to a designated internal endpoint temperature (132, 158, or 165° F.).\n(§2) Samples also contained 547 ppm sodium erythorbate, a cure accelerator (Phase I) and without sodium erythorbate (Phase II). Samples were placed into test tubes and heated in a controlled water bath to 132, 158 and 165° F. Samples were held in a 40° F. cooler for seven days then tested for residual nitrite. Residual nitrite was tested after deproteinization for amino acid analysis by HPLC. Determination of nitrite (UV/VIS Spectrophotometric Method) was used to detect any residual nitrite for best results in detecting minute amounts of nitrite. Residual nitrite levels were read in a 96 well plate reader at 540 nm.\n(§3) Both phases of the experiment were designed as a factorial (concentration level and endpoint temperature) randomized complete block design with three replications. […] Least squares means were generated and Tukey's HSD used to determine significance at P≤0.05."}, "[2]": {"test_system": "nitric oxide synthase system", "conditions": "beef; for Residual Nitrite, LSMean main effect of Temperature: sodium nitrite", "description": "as §1, §2, §3"}, "[3]": {"conditions": "Phase I, with 547 ppm sodium erythorbate, 200 ppm sodium nitrite, 132° F."}, "[4]": {"conditions": "Phase I, with 547 ppm sodium erythorbate, 200 ppm sodium nitrite, 158° F."}, "[5]": {"conditions": "Phase I, with 547 ppm sodium erythorbate, 200 ppm sodium nitrite, 165° F."}, "[6]": {"conditions": "Phase I, with 547 ppm sodium erythorbate, 132° F."}, "[7]": {"conditions": "Phase I, with 547 ppm sodium erythorbate, 158° F."}, "[8]": {"conditions": "Phase I, with 547 ppm sodium erythorbate, 165° F."}, "[9]": {"conditions": "Phase II, without 547 ppm sodium erythorbate, 120 ppm sodium nitrite"}, "[10]": {"conditions": "Phase II, without 547 ppm sodium erythorbate, 120 ppm sodium nitrite, 132° F."}, "[11]": {"conditions": "Phase II, without 547 ppm sodium erythorbate, 120 ppm sodium nitrite, 158° F."}, "[12]": {"conditions": "Phase II, without 547 ppm sodium erythorbate, 120 ppm sodium nitrite, 165° F."}, "[13]": {"conditions": "Phase II, without 547 ppm sodium erythorbate, 156 ppm sodium nitrite"}, "[14]": {"conditions": "Phase II, without 547 ppm sodium erythorbate, 156 ppm sodium nitrite, 132° F."}, "[15]": {"conditions": "Phase II, without 547 ppm sodium erythorbate, 156 ppm sodium nitrite, 158° F."}, "[16]": {"conditions": "Phase II, without 547 ppm sodium erythorbate, 156 ppm sodium nitrite, 165° F."}, "[17]": {"conditions": "Phase II, without 547 ppm sodium erythorbate, 200 ppm sodium nitrite"}, "[18]": {"conditions": "Phase II, without 547 ppm sodium erythorbate, 200 ppm sodium nitrite, 132° F."}, "[19]": {"conditions": "Phase II, without 547 ppm sodium erythorbate, 200 ppm sodium nitrite, 158° F."}, "[20]": {"conditions": "Phase II, without 547 ppm sodium erythorbate, 200 ppm sodium nitrite, 165° F."}, "[21]": {"conditions": "Phase II, without 547 ppm sodium erythorbate, 132° F."}, "[22]": {"conditions": "Phase II, without 547 ppm sodium erythorbate, 158° F."}, "[23]": {"conditions": "Phase II, without 547 ppm sodium erythorbate, 165° F."}},
  "note": "Values joined by “and” are separate entries in the source; they are usually repeats but may differ in a detail not shown here. Identical values can stand only once. Like-named read-outs stand apart in the source and are kept apart here. Marks after values point to notes of the source that are not given here.",
  "data": [
    {"compound": "O=NO", "note": "[Sodium Nitrite, Sodium nitrite, reference compound]", "values": [
      {"measurement": "Residual Nitrite, LSMean Conc × Temp", "setting": "[1]; [3]", "value": 63.47, "unit": "ppm"},
      {"measurement": "Residual Nitrite, LSMean Conc × Temp", "setting": "[1]; [4]", "value": 57.10, "unit": "ppm"},
      {"measurement": "Residual Nitrite, LSMean Conc × Temp", "setting": "[1]; [5]", "value": 84.08, "unit": "ppm"},
      {"measurement": "Residual Nitrite, LSMean main effect of Temperature", "setting": "[1]; [6]", "value": 63.03, "unit": "ppm"},
      {"measurement": "Residual Nitrite, LSMean main effect of Temperature", "setting": "[1]; [7]", "value": 48.21, "unit": "ppm"},
      {"measurement": "Residual Nitrite, LSMean main effect of Temperature", "setting": "[1]; [8]", "value": 61.66, "unit": "ppm"},
      {"measurement": "Residual Nitrite, LSMean main effect of Concentration", "setting": "[1]; [9]", "value": "214.53^a ppm and 214.53 ppm"},
      {"measurement": "Residual Nitrite, LSMean Conc × Temp", "setting": "[1]; [10]", "value": "173.70^ab ppm"},
      {"measurement": "Residual Nitrite, LSMean Conc × Temp", "setting": "[1]; [11]", "value": "178.90^ab ppm"},
      {"measurement": "Residual Nitrite, LSMean Conc × Temp", "setting": "[1]; [12]", "value": "164.54^b ppm"},
      {"measurement": "Residual Nitrite, LSMean main effect of Concentration", "setting": "[1]; [13]", "value": "183.17^b ppm and 183.17 ppm"},
      {"measurement": "Residual Nitrite, LSMean Conc × Temp", "setting": "[1]; [14]", "value": "208.65^ab ppm"},
      {"measurement": "Residual Nitrite, LSMean Conc × Temp", "setting": "[1]; [15]", "value": "166.20^b ppm"},
      {"measurement": "Residual Nitrite, LSMean Conc × Temp", "setting": "[1]; [16]", "value": "174.67^ab ppm"},
      {"measurement": "Residual Nitrite, LSMean main effect of Concentration", "setting": "[1]; [17]", "value": "172.38^b ppm and 172.38 ppm"},
      {"measurement": "Residual Nitrite, LSMean Conc × Temp", "setting": "[1]; [18]", "value": "196.48^ab ppm"},
      {"measurement": "Residual Nitrite, LSMean Conc × Temp", "setting": "[1]; [19]", "value": "232.01^a ppm"},
      {"measurement": "Residual Nitrite, LSMean Conc × Temp", "setting": "[1]; [20]", "value": "215.08^ab ppm"},
      {"measurement": "Residual Nitrite, LSMean main effect of Temperature", "setting": "[1]; [21]", "value": 192.61, "unit": "ppm"},
      {"measurement": "Residual Nitrite, LSMean main effect of Temperature", "setting": "[1]; [22]", "value": 186.00, "unit": "ppm"},
      {"measurement": "Residual Nitrite, LSMean main effect of Temperature", "setting": "[1]; [23]", "value": 185.85, "unit": "ppm"},
      {"measurement": "Residual Nitrite, LSMean main effect of Concentration", "setting": "[2]; Phase I, with 547 ppm sodium erythorbate, 120 ppm sodium nitrite", "value": 75.33, "unit": "ppm"},
      {"measurement": "Residual Nitrite, LSMean Conc × Temp", "setting": "[2]; Phase I, with 547 ppm sodium erythorbate, 120 ppm sodium nitrite, 132° F.", "value": "119.32^a ppm"},
      {"measurement": "Residual Nitrite, LSMean Conc × Temp", "setting": "[2]; Phase I, with 547 ppm sodium erythorbate, 120 ppm sodium nitrite, 158° F.", "value": "60.08^bc ppm"},
      {"measurement": "Residual Nitrite, LSMean Conc × Temp", "setting": "[2]; Phase I, with 547 ppm sodium erythorbate, 120 ppm sodium nitrite, 165° F.", "value": "46.59^c ppm"},
      {"measurement": "Residual Nitrite, LSMean main effect of Concentration", "setting": "[2]; Phase I, with 547 ppm sodium erythorbate, 156 ppm sodium nitrite", "value": 81.08, "unit": "ppm"},
      {"measurement": "Residual Nitrite, LSMean Conc × Temp", "setting": "[2]; Phase I, with 547 ppm sodium erythorbate, 156 ppm sodium nitrite, 132° F.", "value": "107.54^ab ppm"},
      {"measurement": "Residual Nitrite, LSMean Conc × Temp", "setting": "[2]; Phase I, with 547 ppm sodium erythorbate, 156 ppm sodium nitrite, 158° F.", "value": "77.51^abc ppm"},
      {"measurement": "Residual Nitrite, LSMean Conc × Temp", "setting": "[2]; Phase I, with 547 ppm sodium erythorbate, 156 ppm sodium nitrite, 165° F.", "value": "58.18^bc ppm"},
      {"measurement": "Residual Nitrite, LSMean main effect of Concentration", "setting": "[2]; Phase I, with 547 ppm sodium erythorbate, 200 ppm sodium nitrite", "value": 72.05, "unit": "ppm"},
      {"measurement": "Residual Nitrite, LSMean Conc × Temp", "setting": "[2]; [3]", "value": "86.41^abc ppm"},
      {"measurement": "Residual Nitrite, LSMean Conc × Temp", "setting": "[2]; [4]", "value": "47.02^c ppm"},
      {"measurement": "Residual Nitrite, LSMean Conc × Temp", "setting": "[2]; [5]", "value": "82.73^ab ppm"},
      {"measurement": "Residual Nitrite, LSMean main effect of Temperature", "setting": "[2]; [6]", "value": "104.42^a ppm and 104.42 ppm"},
      {"measurement": "Residual Nitrite, LSMean main effect of Temperature", "setting": "[2]; [7]", "value": "61.54^b ppm and 61.54 ppm"},
      {"measurement": "Residual Nitrite, LSMean main effect of Temperature", "setting": "[2]; [8]", "value": "62.50^b ppm and 62.50 ppm"},
      {"measurement": "Residual Nitrite, LSMean main effect of Concentration", "setting": "[2]; [9]", "value": 182.18, "unit": "ppm"},
      {"measurement": "Residual Nitrite, LSMean Conc × Temp", "setting": "[2]; [10]", "value": 187.92, "unit": "ppm"},
      {"measurement": "Residual Nitrite, LSMean Conc × Temp", "setting": "[2]; [11]", "value": 204.95, "unit": "ppm"},
      {"measurement": "Residual Nitrite, LSMean Conc × Temp", "setting": "[2]; [12]", "value": 153.68, "unit": "ppm"},
      {"measurement": "Residual Nitrite, LSMean main effect of Concentration", "setting": "[2]; [13]", "value": 202.15, "unit": "ppm"},
      {"measurement": "Residual Nitrite, LSMean Conc × Temp", "setting": "[2]; [14]", "value": 199.54, "unit": "ppm"},
      {"measurement": "Residual Nitrite, LSMean Conc × Temp", "setting": "[2]; [15]", "value": 214.72, "unit": "ppm"},
      {"measurement": "Residual Nitrite, LSMean Conc × Temp", "setting": "[2]; [16]", "value": 192.19, "unit": "ppm"},
      {"measurement": "Residual Nitrite, LSMean main effect of Concentration", "setting": "[2]; [17]", "value": 196.51, "unit": "ppm"},
      {"measurement": "Residual Nitrite, LSMean Conc × Temp", "setting": "[2]; [18]", "value": 184.28, "unit": "ppm"},
      {"measurement": "Residual Nitrite, LSMean Conc × Temp", "setting": "[2]; [19]", "value": 202.30, "unit": "ppm"},
      {"measurement": "Residual Nitrite, LSMean Conc × Temp", "setting": "[2]; [20]", "value": 202.96, "unit": "ppm"},
      {"measurement": "Residual Nitrite, LSMean main effect of Temperature", "setting": "[2]; [21]", "value": 190.58, "unit": "ppm"},
      {"measurement": "Residual Nitrite, LSMean main effect of Temperature", "setting": "[2]; [22]", "value": 207.32, "unit": "ppm"},
      {"measurement": "Residual Nitrite, LSMean main effect of Temperature", "setting": "[2]; [23]", "value": 182.94, "unit": "ppm"}
    ]}
  ]
}
